Test results as given in article PMC10154249, “Unique progerin C-terminal peptide ameliorates Hutchinson–Gilford progeria syndrome phenotype by rescuing BUBR1” (Nature Aging, 2023).

How the values were obtained:
senescent IMR90 cells = assay: SA-β-gal staining of DNA damage-induced senescent IMR90 cells; assay type: cell-based, human; details: for SA-β-gal positive cells: UPCP 6 μM 5 days
Protocol: Fibroblasts from patients with HGPS were obtained from The Progeria Research Foundation Cell and Tissue Bank (http://www.progeriaresearch.org). The following fibroblasts were used: HGADFN003, HGADFN167, HGMDFN090 and HGFDFN168. Human dermal fibroblasts (GM00038 and AG09602) were obtained from Coriell Cell Repository (https://catalog.coriell.org). These cells were characterized by DNA fingerprinting and isozyme detection and were tested by a MycoBlue Mycoplasma Detector (Vazyme Biotech) to exclude mycoplasma contamination before the experiments. […] HGADFN003, HGADFN167, HGMDFN090, HGFDFN168, GM00038 and AG09602 were cultured in DMEM medium with 15% (v/v) fetal bovine serum (VivaCell). All cell lines were grown at 37 °C with 5% CO2 and IMR90, CRL-1474, HGADFN003, HGADFN167, HGMDFN090, HGFDFN168, GM00038 and AG09602 were cultured with 5% O2. For bleomycin-induced senescence, IMR90 cells were incubated with the culture medium containing 20 μg ml^–1 Bleomycin (Selleck, catalog no. S1214) for 2 h and analyzed 10 days later, or as otherwise indicated. For doxorubicin-induced senescence, IMR90 cells were treated twice with 100 nM Doxorubicin (Selleck, catalog no. S1208) with a 2 day interval and analyzed 10 days later, or as otherwise indicated. For ionizing radiation (IR)-induced senescence, IMR90 cells were exposed to 10 Gy Gamma rays, and analyzed 10 days later, or as otherwise indicated, the control IMR90 cells were mock irradiated. For etoposide-induced senescence, IMR90 cells incubated with the culture medium containing 10 μM Etoposide (Sigma, catalog no. E1383) for 48 h and analyzed 10 days later, or as otherwise indicated.
SA-β-gal staining was performed as previously described. Cells were fixed in 0.5% glutaraldehyde for 15 min at room temperature, washed three times with PBS (pH 6.0) containing 1 mM MgCl2 and exposed overnight 37 °C to containing 1 mg ml^–1 5-bromo-4-chloro-3-indolyl-β-D-galactopyranoside (MCE, catalog no. HY-15934), 0.12 mM potassium ferrocyanide (Sigma, catalog no. P3289), 0.12 mM potassium ferricyanide (Sigma, catalog no. P8131) and 1 mM MgCl2 PBS buffer (pH 6.0). Cells were washed three times with H2O and observed under a microscope (OLYMPUS CKX53). SA-β-gal positive cells were quantified by investigators who were blinded to the identity of the analyzed cell.

PTBP1 = molecular target: T1, PTBP1 (Homo sapiens, UniProt P26599); assay: Microscale thermophoresis (MST) of UPCP and PTBP1; assay type: binding; details: Fig. 4l
T1 construct: made in house
Protocol: Cells were harvested and lysed in buffer A mixed with protease inhibitor cocktail tablet (Roche) after 48 h. […] The beads were washed three times using 1× Tris saline buffer (50 mM Tris-HCl (pH 7.4) and 150 mM NaCl)) for 8 min each. The bound proteins BUBR1 or PTBP1 were eluted with 3×Flag peptide (ApexBio) for 2 h at 4 °C. Finally, BUBR1 or PTBP1 was concentrated and recovered by using the Centrifugal Filters (Amicon Ultra).
His-UPCP was eluted with Imidazole eluent for 2 h at 4 °C and concentrated and recovered by using centrifugal filters (Amicon Ultra). Flag-BUBR1 or PTBP1 was purified as described in Affinity purification of Flag-tagged protein. The purified protein was diluted with 0.05% Tween-20 in PBS in to an appropriate concentration (His-UPCP: 50 nM, Flag-BUBR1: 25 μM, Flag-PTBP1: 45 μM). Then, His-UPCP was labeled with RED-Tris-NAT according to the manufacturer’s instructions (NanoTemper, MO-L018). Flag-BUBR1 or Flag-PTBP1 was diluted by 16 concentration gradients in turn and mixed with labeled protein (His-UPCP). The capillaries (MST NT115 premium) were loaded and the samples measured on the instrument (NanoTemper Monolith NT.115). Data were analyzed by MO.AffinityAnalysis and curves were drawn using Origin 2019.

IMR90 cells = assay: Ki67 immunofluorescence of IMR90 cells; assay type: cell-based, human
Protocol: Immunofluorescence was performed as described previously. Cells were plated on cover slips in 12-well plates, left overnight before the treatment. Cells were fixed in 1% formaldehyde in culture medium for 10 min at 37 °C and permeabilized with 0.2% Triton X-100 in PBS for 10 min at room temperature. Cells were washed twice in PBS and blocked for 1 h with 5% BSA in PBS and then incubated with primary antibodies at 4 °C overnight, washed three times in PBS and incubated with secondary antibodies for 1 h at room temperature. Cell nuclei were counterstained with a 500 nM concentration of 4,6-diamidino-2-phenylindole (DAPI) (Sigma). Images were acquired by a fluorescence microscope (OLYMPUS FV-1000, Carl Zeiss LSM880 or Leica DMi8) and analyzed with software NIS-Elements AR v.5.0.1 (Nikon), FLUOVIEW v.4.2b (OLYMPUS), ZEN v.2.3 SP1 (Carl Zeiss) and Leica Application Suite X v.3.6.0.24 (Leica). Cells were quantified by investigators who were blinded to the identity of the analyzed cell.

T1 sequence (P26599 whole entry): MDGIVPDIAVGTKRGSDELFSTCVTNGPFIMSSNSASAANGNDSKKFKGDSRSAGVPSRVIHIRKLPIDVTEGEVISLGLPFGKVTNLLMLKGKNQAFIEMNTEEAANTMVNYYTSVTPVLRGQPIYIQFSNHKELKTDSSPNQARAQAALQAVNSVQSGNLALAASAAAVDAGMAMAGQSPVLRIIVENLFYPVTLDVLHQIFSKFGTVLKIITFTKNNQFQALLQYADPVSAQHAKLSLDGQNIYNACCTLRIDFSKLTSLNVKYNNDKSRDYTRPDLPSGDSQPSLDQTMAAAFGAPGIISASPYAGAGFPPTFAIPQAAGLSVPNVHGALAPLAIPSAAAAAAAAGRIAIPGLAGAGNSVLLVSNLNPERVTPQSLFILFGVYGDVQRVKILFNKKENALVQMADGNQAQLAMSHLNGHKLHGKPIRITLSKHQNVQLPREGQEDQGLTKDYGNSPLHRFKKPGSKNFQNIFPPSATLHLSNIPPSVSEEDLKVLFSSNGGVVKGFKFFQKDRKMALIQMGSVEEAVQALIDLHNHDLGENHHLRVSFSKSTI

Substance: H-YGRKKRRQRRRYNLRSRTVLCGTCGQPADKASASGSGAQSPQNCSIM-OH (cysteines drawn unpaired) [UPCP, unique progerin C-terminal peptide]
- SA-β-gal positive cells (senescent IMR90 cells; BLM (bleomycin 20 μg/mL 2 h), replicate 1): 71.6418%
- SA-β-gal positive cells (senescent IMR90 cells; BLM (bleomycin 20 μg/mL 2 h), replicate 2): 81.25%
- SA-β-gal positive cells (senescent IMR90 cells; BLM (bleomycin 20 μg/mL 2 h), replicate 3): 74.0741%
- SA-β-gal positive cells (senescent IMR90 cells; Dox (doxorubicin 100 nM twice), replicate 1): 76.4706%
- SA-β-gal positive cells (senescent IMR90 cells; Dox (doxorubicin 100 nM twice), replicate 2): 84.6154%
- SA-β-gal positive cells (senescent IMR90 cells; Dox (doxorubicin 100 nM twice), replicate 3): 66.1539%
- SA-β-gal positive cells (senescent IMR90 cells; Eto (etoposide 10 μM 48 h), replicate 1): 80.4348%
- SA-β-gal positive cells (senescent IMR90 cells; Eto (etoposide 10 μM 48 h), replicate 2): 71.7949%
- SA-β-gal positive cells (senescent IMR90 cells; Eto (etoposide 10 μM 48 h), replicate 3): 70.9091%
- rescue of phenotype of DNA damage-induced senescent cells (senescent IMR90 cells; IMR90, 10 days after bleomycin, doxorubicin, ionizing radiation or etoposide): failed to rescue the progeria phenotype of these cells
- SA-β-gal positive cells (senescent IMR90 cells; IR (10 Gy), replicate 1): 77.4193%
- SA-β-gal positive cells (senescent IMR90 cells; IR (10 Gy), replicate 2): 75.5814%
- SA-β-gal positive cells (senescent IMR90 cells; IR (10 Gy), replicate 3): 70.4545%
- Dose Response Curve, Response (PTBP1; Dose 5.625e-6, Err-Value 0.11619): 926.063
- Dose Response Curve, Response (PTBP1; Dose 1.125e-5, Err-Value 0.242742): 928.882
- Dose Response Curve, Response (PTBP1; Dose 2.25e-5, Err-Value 0.492149): 930.614
- Dose Response Curve, Response (PTBP1; Dose 1.10E-08, Err-Value 0.170403): 918.746
- Dose Response Curve, Response (PTBP1; Dose 1.37E-09, Err-Value 0.46814): 919.158
- Dose Response Curve, Response (PTBP1; Dose 1.41E-06, Err-Value 0.643872): 921.756
- Dose Response Curve, Response (PTBP1; Dose 1.76E-07, Err-Value 0.140462): 919.37
- Dose Response Curve, Response (PTBP1; Dose 2.20E-08, Err-Value 0.425445): 918.898
- Dose Response Curve, Response (PTBP1; Dose 2.75E-09, Err-Value 0.242938): 919.038
- Dose Response Curve, Response (PTBP1; Dose 2.81E-06, Err-Value 0.290637): 923.469
- Dose Response Curve, Response (PTBP1; Dose 3.52E-07, Err-Value 0.0904303): 919.901
- Dose Response Curve, Response (PTBP1; Dose 4.39E-08, Err-Value 0.556308): 918.749
- Dose Response Curve, Response (PTBP1; Dose 5.49E-09, Err-Value 0.120596): 918.787
- Dose Response Curve, Response (PTBP1; Dose 6.87E-10, Err-Value 0.420573): 919.333
- Dose Response Curve, Response (PTBP1; Dose 7.03E-07, Err-Value 0.21429): 920.338
- Dose Response Curve, Response (PTBP1; Dose 8.79E-08, Err-Value 0.322491): 918.54
- Ki67 positive cells (IMR90 cells; IMR90, replicate 1): 73%
- Ki67 positive cells (IMR90 cells; IMR90, replicate 2): 84%
- Ki67 positive cells (IMR90 cells; IMR90, replicate 3): 87%
